In paper PMC8233136, “Monomeric bile acids modulate the ATPase activity of detergent-solubilized ABCB4/MDR3” (Journal of Lipid Research, 2021):
Where “and” joins values, the source holds several entries; their conditions need not be identical. Equal entries are not always repeated.

Legend:
human ABCB4 [1] = molecular target: T1, human ABCB4 (Homo sapiens, UniProt P21439); experiment: ATP hydrolysis (malachite green) of detergent-solubilized, purified ABCB4: modulation of basal ATPase activity; type: biochemical; conditions: for EC50: stimulation of basal ATPase activity, allosteric sigmoidal fit, read-out: EC50; for Emax: vmax of allosteric sigmoidal fit (Equation 1), basal ABCB4 ATPase activity set to 0%, read-out: Max. Stimulation (%)
T1 construct: made in house; host or cells: Pichia pastoris (chromosomally integrated)
T1 sequence (P21439 1-1279 isoform P21439-2): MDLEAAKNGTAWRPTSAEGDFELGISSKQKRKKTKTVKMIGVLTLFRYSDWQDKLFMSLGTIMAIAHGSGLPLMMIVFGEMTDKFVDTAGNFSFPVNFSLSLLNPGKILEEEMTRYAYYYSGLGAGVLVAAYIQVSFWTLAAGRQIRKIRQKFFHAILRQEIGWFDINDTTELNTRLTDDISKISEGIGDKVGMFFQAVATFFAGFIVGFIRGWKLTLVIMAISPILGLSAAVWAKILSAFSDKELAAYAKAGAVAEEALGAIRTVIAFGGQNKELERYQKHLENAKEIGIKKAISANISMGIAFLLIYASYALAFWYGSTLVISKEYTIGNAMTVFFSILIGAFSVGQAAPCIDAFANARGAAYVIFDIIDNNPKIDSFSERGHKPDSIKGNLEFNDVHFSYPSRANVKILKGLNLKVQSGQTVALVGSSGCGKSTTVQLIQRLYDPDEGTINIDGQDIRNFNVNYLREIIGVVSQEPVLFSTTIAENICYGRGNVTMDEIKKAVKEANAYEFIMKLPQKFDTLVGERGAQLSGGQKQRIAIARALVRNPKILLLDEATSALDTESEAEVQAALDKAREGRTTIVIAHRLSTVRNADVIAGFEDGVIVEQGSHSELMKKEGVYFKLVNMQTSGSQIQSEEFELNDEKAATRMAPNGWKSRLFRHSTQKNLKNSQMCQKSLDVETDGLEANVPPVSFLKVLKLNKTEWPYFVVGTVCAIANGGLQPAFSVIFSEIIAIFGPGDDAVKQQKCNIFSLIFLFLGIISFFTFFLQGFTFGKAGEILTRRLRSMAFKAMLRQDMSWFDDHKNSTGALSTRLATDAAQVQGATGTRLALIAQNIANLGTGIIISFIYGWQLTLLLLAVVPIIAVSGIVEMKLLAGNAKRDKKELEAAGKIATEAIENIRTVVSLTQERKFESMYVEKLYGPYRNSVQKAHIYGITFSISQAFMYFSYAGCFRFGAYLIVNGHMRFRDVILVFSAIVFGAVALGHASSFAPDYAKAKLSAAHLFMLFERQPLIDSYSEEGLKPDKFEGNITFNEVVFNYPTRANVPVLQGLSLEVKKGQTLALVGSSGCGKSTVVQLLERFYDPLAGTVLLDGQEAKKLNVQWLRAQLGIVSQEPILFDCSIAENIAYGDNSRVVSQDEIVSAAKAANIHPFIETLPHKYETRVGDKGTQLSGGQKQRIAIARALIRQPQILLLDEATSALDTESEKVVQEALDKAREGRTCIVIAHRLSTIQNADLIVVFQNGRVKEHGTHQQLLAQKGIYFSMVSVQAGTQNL
Description: (§1) The sodium salts of conjugated and unconjugated bile acids were dissolved in double-distilled water (ddH2O) or 100% DMSO at a concentration of 100 mM. While glyco-/tauro-/cholic acid (G/T/CA), glyco-/tauro-/chenodeoxycholic acid (G/T/CDCA) were dissolved in ddH2O water, glyco-/tauro-/deoxycholic acid (G/T/DCA), glyco/-tauro-/ursodeoxycholic acid (G/T/UDCA) as wells as Nor-UDCA and taurolithocholic acid (TLCA) were dissolved in DMSO. […] Modulation of the ATP hydrolysis by bile acid was determined in a concentration-dependent manner from 0 to 1,000 μM bile acids.
(§2) Analysis of the ATP activity of ABCB4 was performed by determining the amount of released, free inorganic orthophosphate by the malachite green assay ([53], [54], [60]) with minor modifications. The assay was performed in a total volume of 100 μl consisting of reaction buffer (50 mM Tris HCl, pH 7.4 at 37°C, 100 mM NaCl) supplemented with the 2.5 × cmc of FC-16 and 10 mM MgCl2. For determining the effect of DOPC, different bile acids or combinations thereof, 1–5 μL of the corresponding stock solutions (see lipid and bile acid preparation) were added. Five micrograms of ABCB4 or the BODIPY®-labeled sample was used in every reaction sample. Reaction was started by addition of ATP (5 mM f.c.) and performed for 40 min at 37°C. After 0 and 40 min, the reaction was stopped by transferring 25 μl of the reaction mixture into a 96-well plate containing 175 μl of 20 mM ice-cold sulfuric acid. Additionally, a phosphate standard with concentrations raging from 0 to 500 μM was used. Subsequently, inorganic phosphate was stained by adding 50 μl of dye (0.096% (w/v) malachite green, 1.48% (w/v) ammonium molybdate, 0.173% (w/v) Tween-20, and […] sulfuric acid). After incubation for 15 min, the absorption at 595 nm was measured (iMark™ Microplate Reader, BioRad), and the concentrations of phosphate release were calculated based on the slope of the line calculated based on the phosphate standards.
(§3) Basal ATPase activity of ABCB4 was set to 0% and the effect of supplements was calculated as % stimulation or % inhibition of the basal activity, respectively. For determination of kinetic parameters, bile acid concentration was varied and analyzed according to an allosteric sigmoidal fit (Equation 1):(1) v=vmax∗[S]^h/EC50h+[S]^h
Here, v describes the stimulation (%), vmax is the maximal stimulation (%), EC50 represents the half maximal effective concentration, S is the substrate concentration, and h is the Hill coefficient
In case of inhibition, the reduction (%) was plotted against the bile acid concentration and data were analyzed using Equation 2:(2) y=ymin+(ymax−ymin)/1+10^((logIC50−x)∗slope)
Here, ymax is the smallest, and ymin is the highest amount of inhibition, respectively, and x represents the concentration of the inhibitor. The IC50 value is defined as the concentration necessary to obtain 50% inhibition.
In case of both substrate stimulations, followed by substrate inhibition after maximal stimulation was reached, the modulation (%) was plotted against the substrate concertation and data was analyzed using by two fits: First part (stimulation) was as usually fitted using Equation 1. The second part (substrate inhibition) was analyzed by Equation 3 starting at the last point of the plateau:(3) y=ymin+[…]/(1+x/IC50)
Here, ymax is the highest value of the plateau after stimulation is reached, while ymin is the smallest value of y after maximal stimulation was reached.

human ABCB4 [2] = molecular target: T1, human ABCB4; experiment: ATP hydrolysis (malachite green) of purified ABCB4 in the presence of 300 μM DOPC (with or without cholesterol); type: biochemical; conditions: for activity at 1000 µM: 1,000 μM bile acid/detergent/BAM + 300 μM DOPC, read-out: Relative ATPase activity in the presence of 300 μM DOPC
Description: A sample of purified ABCB4 was incubated with 10-fold molar excess of BODIPY® FL maleimide (BODIPY® FL N-(2-aminoethyl)maleimide, Molecular Probes) at 22°C for 20 min. The reaction was quenched after 20 min by addition of a 20-fold molar excess of dithiothreitol (DTT) at 22°C for 10 min. Qualitative labeling efficiency was analyzed by visualizing a sample after SDS-PAGE by UV excitation.
DOPC was dissolved in chloroform, the solvent was evaporated, and the dried lipid sample was redissolved in ATP hydrolysis reaction buffer (50 mM Tris HCl, pH 7.4 at 37°C, 100 mM NaCl) at a concentration of 25.4 mM following the protocol of Geertsma et al. ([59]). Prior to the addition of the DOPC sample to the ATP hydrolysis assay, it was diluted to 5 mM, sonicated until a clear solution was obtained, and subsequently used at a final concentration of 300 μM. Since chloroform is not suitable for the later ATPase assay and cholesterol at higher concentration is insoluble in water and nearly all solvents, a molar mixture of cholesterol and DOPC was used. This mixture was obtained by adding the required molar ratio of cholesterol to always the same amount of dried DOPC. Afterward, the mixture was treated identical to DOPC only as described above resulting in a final concentration (f.c.) of 300 μM DOPC with 0–1,000 μM cholesterol in the ATPase assay.
as §1, §2, §3

[3] = Critical micelle concentration by Hoechst 33342 fluorescence in ATPase reaction buffer; type: physicochemical; conditions: 50 mM Tris-HCl pH 7.5, 100 mM NaCl, 37°C; no FC-16, MgCl2 or ATP
Description: CMC values were determined as described ([61]). […] 96-well plates suitable for fluorescence spectroscopy (Greiner Bio-One, FIA plate, black, flat bottom, medium binding) were used. […] CMCs of the bile acids were determined in ATPase reaction buffer (50 mM Tris-HCl, pH 7.5 (at 37°C), 100 mM NaCl) containing no FC-16, MgCl2, or ATP at 37°C using a Tecan M200 plate reader (Atlantic lab equipment). Bile acids were dissolved either in ddH2O or in 100% DMSO (as stated in “Lipid, cholesterol and bile acid preparation”) at a concentration of 100 mM. […] In case of hydrophobic bile acids, which were dissolved in DMSO, DMSO concentration was adapted to 1% in all wells. […] After background correction, fluorescence data were analyzed using Prism (version 8, GraphPad) with Equation 4:(4) F=Fmax∗(c[BA]−cmc)/(K0.5−cmc)+(c[BA]−cmc)
The measured fluorescence at each bile acid concentration (c[BA]) is represented by F, while Fmax is the maximal fluorescence, K0.5 is the midpoint of the function, and cmc is the critical micelle concentration of the bile acid.

[4] = Solubility / precipitation of bile acids under assay conditions; type: physicochemical; conditions: assay setup, DMSO stock
Description: as §1, with “DMSO. Glyco- and unconjugated lithocholic acid could not be dissolved in DMSO in the appropriate concentrations and therefore excluded.” for “DMSO.”

[5] = Hill coefficient of allosteric sigmoidal fit of ATPase stimulation

Slope (human ABCB4 [1]; [5]) | EC50 (human ABCB4 [1]; 0-1,000 μM) [µM] | Emax (human ABCB4 [1]; 0-1,000 μM) [%] | activity at 1000 µM (human ABCB4 [2]; DOPC alone set to 100%) [%] | Critical micelle concentration (cmc) [3] | Increase of ATPase activity compared with UDCA (human ABCB4 [1]; maximal stimulation, side chain shortened by one carbon atom) | ATPase activity in the presence of cholesterol:DOPC 1.5:1 (human ABCB4 [2]; 1,000 μM BAM or Nor-UDCA added to cholesterol:DOPC (1.5:1, 300 μM DOPC), DOPC alone set to 100%) [%] | Concentration at which maximal stimulation (plateau) of ATPase activity is reached (human ABCB4 [1]; basal ATPase activity, 0-1,000 μM) | Reduction of ATPase activity at 100 μM (human ABCB4 [1]; 100 μM) [%] | inhibition at 1000 µM (human ABCB4 [1]; 1,000 μM, 5% DMSO, mixture experiment Fig. 6, read-out: Inhibition of basal ATPase activity by pure bile acid at 1,000 μM) [%] | Concentration at which maximal inhibition is reached (human ABCB4 [1]; basal ATPase activity) [µM] | IC50 (human ABCB4 [1]; inhibition of basal ATPase activity, Equation 2) [µM] | Slope (human ABCB4 [1]; slope of inhibition fit (Equation 2)) | Decrease of DOPC-stimulated ATPase activity (human ABCB4 [2]; 1,000 μM + 300 μM DOPC, relative to DOPC alone) | Compound | Concentration above which the bile acid precipitated [4]
6.3 ± 1.3 | 476 ± 18.5 | 195 ± 10.8 | 373 ± 30 | 1.8 mM and 1.8 ± 0.1 mM | approximately 85% | 380.7 ± 45.6 | – | – | – | – | – | – | – | C[C@H](CC(=O)O)[C@H]1CC[C@H]2[C@@H]3[C@@H](O)C[C@@H]4C[C@H](O)CC[C@]4(C)[C@H]3CC[C@]12C [Nor-UDCA, 24-nor-ursodeoxycholic acid] | –
2.6 ± 0.4 | 169 ± 11 | 423 ± 15 | 112 ± 8.2 | 1.7 mM and 1.7 ± 0.1 mM | – | – | approximately 500 μM | – | – | – | – | – | – | C[C@H](CCC(=O)NCCS(=O)(=O)O)[C@H]1CC[C@H]2[C@@H]3[C@H](O)C[C@@H]4C[C@H](O)CC[C@]4(C)[C@H]3CC[C@]12C [TCDCA, taurochenodeoxycholic acid] | –
2.7 ± 0.3 | 102 ± 4.2 | 217 ± 4 | 84.8 ± 9.3 | 1.7 mM and 1.7 ± 0.1 mM | – | – | – | – | – | – | – | – | – | C[C@H](CCC(=O)NCCS(=O)(=O)O)[C@H]1CC[C@H]2[C@@H]3CC[C@@H]4C[C@H](O)CC[C@]4(C)[C@H]3C[C@H](O)[C@]12C [TDCA] | –
– | – | – | 34.8 ± 21.9 | 0.14 mM and 0.14 ± 0.03 mM | – | – | – | 36 | ~50 | 400 | 113 | −2.7 ± 2.1 | approximately 65% | C[C@H](CCC(=O)NCCS(=O)(=O)O)[C@H]1CC[C@H]2[C@@H]3CC[C@@H]4C[C@H](O)CC[C@]4(C)[C@H]3CC[C@]12C [TLCA, taurolithocholic acid] | –
4.5 ± 1.4 | 267 | 154 ± 11 | 88.2 ± 8.3 | 1.5 mM and 1.5 ± 0.2 mM | – | – | – | – | – | – | – | – | – | C[C@H](CCC(=O)NCCS(=O)(=O)O)[C@H]1CC[C@H]2[C@@H]3[C@@H](O)C[C@@H]4C[C@H](O)CC[C@]4(C)[C@H]3CC[C@]12C [TUDCA] | –

Compound | Slope (human ABCB4 [1]; [5]) | EC50 (human ABCB4 [1]; 0-1,000 μM) [µM] | Emax (human ABCB4 [1]; 0-1,000 μM) [%] | activity at 1000 µM (human ABCB4 [2]; DOPC alone set to 100%) [%] | Critical micelle concentration (cmc) [3] | Increase of ATPase activity compared with UDCA (human ABCB4 [1]; maximal stimulation, side chain shortened by one carbon atom) | ATPase activity in the presence of cholesterol:DOPC 1.5:1 (human ABCB4 [2]; 1,000 μM BAM or Nor-UDCA added to cholesterol:DOPC (1.5:1, 300 μM DOPC), DOPC alone set to 100%) [%] | Concentration at which maximal stimulation (plateau) of ATPase activity is reached (human ABCB4 [1]; basal ATPase activity, 0-1,000 μM) | Reduction of ATPase activity at 100 μM (human ABCB4 [1]; 100 μM) [%] | inhibition at 1000 µM (human ABCB4 [1]; 1,000 μM, 5% DMSO, mixture experiment Fig. 6, read-out: Inhibition of basal ATPase activity by pure bile acid at 1,000 μM) [%] | Concentration at which maximal inhibition is reached (human ABCB4 [1]; basal ATPase activity) [µM] | IC50 (human ABCB4 [1]; inhibition of basal ATPase activity, Equation 2) [µM] | Slope (human ABCB4 [1]; slope of inhibition fit (Equation 2)) | Decrease of DOPC-stimulated ATPase activity (human ABCB4 [2]; 1,000 μM + 300 μM DOPC, relative to DOPC alone) | Concentration above which the bile acid precipitated [4]
C[C@H](CCC(=O)NCC(=O)O)[C@H]1CC[C@H]2[C@@H]3CC[C@@H]4C[C@H](O)CC[C@]4(C)[C@H]3C[C@H](O)[C@]12C [GDCA] | 5.9 ± 1.2 | 47.9 ± 1.5 | 259 ± 5 | 156 ± 8.9 | 2.0 mM and 2.0 ± 0.1 mM | – | – | – | – | – | – | – | – | – | –
C[C@H](CCC(=O)NCC(=O)O)[C@H]1CC[C@H]2[C@@H]3[C@@H](O)C[C@@H]4C[C@H](O)CC[C@]4(C)[C@H]3CC[C@]12C [GUDCA] | 4.5 ± 1.0 | 393 | 185 ± 13 | 111 ± 3.1 | 1.6 mM and 1.6 ± 0.1 mM | – | – | – | – | – | – | – | – | – | –
C[C@H](CCC(=O)NCC(=O)O)[C@H]1CC[C@H]2[C@@H]3CC[C@@H]4C[C@H](O)CC[C@]4(C)[C@H]3CC[C@]12C [Glycolithocholic acid] | – | – | – | – | Precipitate ^a | – | – | – | – | – | – | – | – | – | higher than 100 μM
C[C@H](CCC(=O)O)[C@H]1CC[C@H]2[C@@H]3[C@@H](O)C[C@@H]4C[C@H](O)CC[C@]4(C)[C@H]3CC[C@]12C [UDCA, Ursodeoxycholic acid] | 4.6 ± 1.3 | 470 ± 34.5 | 110 ± 10.7 | 115 ± 22.1 | 1.3 mM and 1.3 ± 0.1 mM | – | – | – | – | – | – | – | – | – | –
